Earlier results on five molecules are cited in patent publication US5204349A, “Amide-substituted derivatives of spiroindanylcamphorsulfonyl oxytocin antagonists” (priority 1991, dated 1993).

Like-named read-outs stand apart in the source and are kept apart here.

For data set [1] the following is noted: compared with ritodrine.
Where [2] appears, read: tocolytic use, mother and infant.

In the case of `O=S(=O)([O-])[O-].[Mg+2]` [Magnesium sulfate], under “plasma concentrations above 4 to 8 mg/dL”, the “adverse effects at plasma concentrations above the therapeutic range” value was “can cause inhibition of cardiac conduction and neuromuscular transmission, respiratory depression and cardiac arrest”. As to `CCO` [Ethanol], in data set [1], the “effectiveness in preventing premature labor” value was “as effective as ritodrine in preventing premature labor” and the “reduction in the incidence of fetal respiratory distress” value is recorded as “does not produce a corresponding reduction in the incidence of fetal respiratory distress that administration of ritodrine does”. For `CC(C)(C)NCC(O)c1ccc(O)c(CO)c1` (stereo not drawn) [albuterol], where the note is “in vivo”, the side effects result is “side effects similar to those of ritodrine”. With `CC(NCCc1ccc(O)cc1)C(O)c1ccc(O)cc1` (stereo not drawn) [Ritodrine], under setting [2], the side effects entry was “causes a number of cardiovascular and metabolic side effects in the mother, including tachycardia, increased renin secretion, hyperglycemia (and reactive hypoglycemia in the infant)”. Take `CC(C)(C)NCC(O)c1cc(O)cc(O)c1` (stereo not drawn) [terbutaline]: under setting [2], the side effects entry is reported as “side effects similar to those of ritodrine”.
